Measured values as given in the supplement of paper PMC10307832.

Experiments:
Assay in all cases: relative viability (nuclei count vs DMSO), 5 days (fraction); higher = more cells survive
Bortezomib + Vorinostat = compound: CC(C)C[C@H](NC(=O)[C@H](Cc1ccccc1)NC(=O)c1cnccn1)B(O)O [Bortezomib] + O=C(CCCCCCC(=O)Nc1ccccc1)NO [Vorinostat] (partner 1 µM)
Procedure, shortened: (§1)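 Lung cancer cell lines were seeded in 1536-well plates and dosed by pin tool the next day, with either a single drug or a fixed anchor-drug dose combined with five library-drug doses (not always all listed) spaced in √10 steps. Five days later, one step fixed the cells and stained their nuclei (final 0.05% Triton X-100, 1% formaldehyde, 1 ug/ml Hoechst), and nuclei were counted on 4× images. Relative viability is the nuclei count in treated wells divided by the count in vehicle wells, and each value is the median of duplicate plates.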

[1] = compound: CC1=CC(=NN1)NC2=CC(=NC(=N2)/C=C/C3=CC=CC=C3)N4CCN(CC4)C + CS(=O)(=O)CCNCc1ccc(-c2ccc3ncnc(Nc4ccc(OCc5cccc(F)c5)c(Cl)c4)c3c2)o1 [Lapatinib] (partner 2 µM)
Procedure, shortened: as §1

[2] = compound: CC1=CC(=NN1)NC2=CC(=NC(=N2)/C=C/C3=CC=CC=C3)N4CCN(CC4)C + C[C@]1(O)C[C@@H](c2nc(-c3ccc4ccc(-c5ccccc5)nc4c3)c3c(N)nccn32)C1 [Linsitinib] (partner 1 µM)
Procedure, shortened: as §1

Obatoclax + Phenformin = compound: COC1=CC(c2cc3ccccc3[nH]2)=N/C1=C\c1[nH]c(C)cc1C [Obatoclax] + N=C(N)NC(=N)NCCc1ccccc1 [Phenformin] (partner 250 µM)
Procedure, shortened: as §1

Cell Line | relative viability (Bortezomib + Vorinostat; first compound 0.0002 µM) | relative viability (Bortezomib + Vorinostat; first compound 0.000632 µM) | relative viability (Bortezomib + Vorinostat; first compound 0.002 µM) | relative viability (Bortezomib + Vorinostat; first compound 0.006325 µM) | relative viability (Bortezomib + Vorinostat; first compound 0.02 µM) | relative viability ([1]; first compound 0.08 µM) | relative viability ([1]; first compound 0.253 µM) | relative viability ([1]; first compound 0.8 µM) | relative viability ([1]; first compound 2.53 µM) | relative viability ([1]; first compound 8 µM) | relative viability ([2]; first compound 0.08 µM) | relative viability ([2]; first compound 0.253 µM) | relative viability ([2]; first compound 0.8 µM) | relative viability ([2]; first compound 2.53 µM) | relative viability ([2]; first compound 8 µM) | relative viability (Obatoclax + Phenformin; first compound 0.01 µM) | relative viability (Obatoclax + Phenformin; first compound 0.03162 µM) | relative viability (Obatoclax + Phenformin; first compound 0.1 µM) | relative viability (Obatoclax + Phenformin; first compound 0.3162 µM) | relative viability (Obatoclax + Phenformin; first compound 1 µM)
NCI-H727 | 1.29 | 1.06 | 1.36 | 1.1 | 1.02 | 0.744 | 0.525 | 0.805 | 0.494 | 0.193 | 0.208 | 0.342 | 0.261 | 0.221 | 0.1 | 0.692 | 0.499 | 0.552 | 0.529 | 0.517
NCI-H1944 | 0.563 | 0.546 | 0.633 | 0.333 | 0.148 | 0.837 | 0.931 | 0.865 | 0.655 | 0.29 | 1.21 | 1.4 | 1.23 | 0.86 | 0.348 | 0.215 | 0.202 | 0.149 | 0.201 | 0.18
NCI-H1437 | 0.782 | 0.875 | 0.555 | 0.219 | 0.172 | 0.853 | 0.909 | 0.833 | 0.347 | 0.105 | 1.09 | 1.12 | 0.88 | 0.416 | 0.083 | 0.242 | 0.317 | 0.314 | 0.296 | 0.246
NCI-H441 | 0.865 | 0.803 | 0.243 | 0.138 | 0.141 |  |  |  |  |  | 0.483 | 0.584 | 0.444 | 0.196 | 0.0922 | 0.664 | 0.79 | 0.771 | 0.614 | 0.475
EMC-BAC-2 | 0.402 | 0.467 | 0.409 | 0.155 | 0.143 | 0.905 | 0.923 | 0.811 | 0.689 | 0.136 | 0.821 | 0.91 | 0.77 | 0.594 | 0.204 | 0.478 | 0.526 | 0.398 | 0.466 | 0.371
NCI-H647 | 0.492 | 0.583 | 0.0536 | 0.0218 | 0.0184 | 1.02 | 1.29 | 1.08 | 0.0749 | 0.0425 | 1.06 | 1.25 | 1.21 | 0.0813 | 0.0644 | 0.566 | 0.576 | 0.518 | 0.252 | 0.146
CAL-12T | 0.781 | 0.922 | 0.691 | 0.281 | 0.0995 | 0.654 | 0.778 | 0.663 | 0.324 | 0.141 | 0.756 | 0.69 | 0.979 | 0.49 | 0.214 | 0.552 | 0.612 | 0.538 | 0.155 | 0.102
NCI-H1792 |  |  |  |  |  | 0.862 | 0.861 | 0.892 | 0.841 | 0.145 | 0.58 | 0.56 | 0.513 | 0.316 | 0.112 | 0.371 |  |  | 0.176 | 0.0627
H3255 | 0.811 | 0.827 | 0.748 | 0.253 | 0.244 | 0.244 | 0.211 | 0.478 | 0.203 | 0.123 | 0.95 | 1.09 | 0.975 | 0.886 | 0.391 | 0.306 | 0.377 | 0.372 | 0.335 | 0.42
HCC-78 | 0.453 | 0.447 | 0.263 | 0.281 | 0.276 | 0.673 | 1.04 | 0.87 | 0.68 | 1.27 | 0.42 | 0.568 | 0.494 | 0.391 | 0.152 | 0.8 | 0.634 | 0.868 | 0.642 | 0.67
EBC-1 |  |  |  |  |  | 0.214 | 0.223 | 0.254 | 0.209 | 0.153 | 0.852 | 0.874 | 0.923 | 0.71 | 0.317 |  |  |  |  | 
NCI-H2405 | 0.977 | 1.02 | 0.812 | 0.133 | 0.119 | 1.09 | 0.87 | 1.22 | 0.696 | 0.133 | 0.951 | 0.674 | 1.06 | 0.499 | 0.164 | 0.411 | 0.394 |  | 0.402 | 0.411
A549 |  |  |  |  |  | 0.924 | 0.954 | 0.772 | 0.102 | 0.0367 | 0.538 | 0.689 | 0.481 | 0.275 | 0.0279 | 0.131 | 0.248 | 0.035 | 0.222 | 0.0807
NCI-H3122 | 0.993 | 1.07 | 1.46 | 0.515 | 0.108 | 0.971 | 0.859 | 1.03 | 0.925 | 0.897 | 1.01 | 0.944 | 0.999 | 0.884 | 0.77 | 0.385 | 0.404 | 0.317 | 0.386 | 0.351
NCI-H1563 |  |  |  |  |  | 0.905 | 0.784 | 0.91 | 0.667 | 0.403 | 1.23 | 1.34 | 1.18 | 0.718 | 0.514 | 0.621 | 0.696 | 0.629 | 0.683 | 0.586
